In data set [1] the test system is IMR-32. The experiment in a line: Cytotoxicity against human IMR-32 cells assessed as lethal concentration measured after 24 hrs in presence of bortezomib by cell titer glo assay. It counts as functional. Conditions: read-out: LC50 (the source's name).
The target of data set [2] is Spermine oxidase (Homo sapiens) (UniProt Q9NWM0). The experiment in a line: Inhibition of SMOX (unknown origin) at 50 uM using spermine as substrate preincubated for 1 hr followed by substrate addition and measured after 20 mins by luminometer analysis relative to control. Conditions: time 80.0 min.
Chain of Spermine oxidase (Homo sapiens) (Q9NWM0 whole entry): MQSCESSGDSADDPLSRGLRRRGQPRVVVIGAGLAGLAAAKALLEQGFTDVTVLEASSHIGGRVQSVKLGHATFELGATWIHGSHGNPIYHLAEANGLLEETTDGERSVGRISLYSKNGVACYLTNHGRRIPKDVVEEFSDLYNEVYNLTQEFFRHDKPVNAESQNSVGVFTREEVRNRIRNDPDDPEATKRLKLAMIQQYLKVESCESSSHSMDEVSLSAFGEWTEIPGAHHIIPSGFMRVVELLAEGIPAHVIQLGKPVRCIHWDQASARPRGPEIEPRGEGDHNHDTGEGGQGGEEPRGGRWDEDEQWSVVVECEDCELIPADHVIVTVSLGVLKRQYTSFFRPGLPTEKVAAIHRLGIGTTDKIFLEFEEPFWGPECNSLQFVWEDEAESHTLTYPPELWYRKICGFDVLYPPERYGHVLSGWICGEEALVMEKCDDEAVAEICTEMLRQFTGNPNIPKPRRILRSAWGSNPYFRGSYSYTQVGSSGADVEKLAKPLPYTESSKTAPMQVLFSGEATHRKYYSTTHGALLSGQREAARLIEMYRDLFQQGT
The test system of data set [3] is IMR-32. The experiment in a line: Cytotoxicity against human IMR-32 cells assessed lethal concentration measured after 72 hrs by cell titer glo assay. In kind it is functional. Conditions: read-out: LC50 (the source's name).
Data set [4] deals with CHP-134. The experiment in a line: Cytotoxicity against human CHP-134 cells assessed lethal concentration measured after 72 hrs by cell titer glo assay. Conditions: read-out: LC50 (the source's name). In kind it is functional.
The subject of data set [5] is CHP-134. The experiment in a line: Cytotoxicity against human CHP-134 cells measured after 24 hrs in presence of bortezomib by cell titer glo assay. In kind it is functional, cell-based.
Data set [6] has as its system CHP-134. The experiment in a line: Cytotoxicity against human CHP-134 cells assessed as lethal concentration measured after 24 hrs in presence of bortezomib by cell titer glo assay. It counts as functional. Conditions: read-out: LC50 (the source's name).
In data set [7] the test system is IMR-32. The experiment in a line: Upregulation of LSD1 expression level in human IMR-32 cells by DAPI staining based analysis. In kind it is functional, cell-based.
For data set [8], the target named is T1, MAO-A (Amine oxidase [flavin-containing] A) (Homo sapiens, UniProt P21397).
T1 sequence (P21397 whole entry): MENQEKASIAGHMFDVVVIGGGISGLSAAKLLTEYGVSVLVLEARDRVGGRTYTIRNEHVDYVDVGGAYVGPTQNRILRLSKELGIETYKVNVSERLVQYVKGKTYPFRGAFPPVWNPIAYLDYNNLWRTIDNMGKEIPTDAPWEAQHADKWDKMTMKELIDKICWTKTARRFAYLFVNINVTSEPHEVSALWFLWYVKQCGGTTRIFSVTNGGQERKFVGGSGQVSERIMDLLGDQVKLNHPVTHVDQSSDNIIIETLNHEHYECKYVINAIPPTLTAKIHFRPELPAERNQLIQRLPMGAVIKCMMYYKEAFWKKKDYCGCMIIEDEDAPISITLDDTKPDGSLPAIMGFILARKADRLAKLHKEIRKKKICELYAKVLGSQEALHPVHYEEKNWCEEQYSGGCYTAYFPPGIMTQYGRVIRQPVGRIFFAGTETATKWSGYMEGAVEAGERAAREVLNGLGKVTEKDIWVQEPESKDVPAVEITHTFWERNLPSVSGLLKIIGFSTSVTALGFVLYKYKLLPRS
The experiment in a line: Inhibition of recombinant MAO-A (unknown origin) at 1 uM using luciferin as substrate preincubated for 1 hr followed by substrate addition measured after 20 min by microplate reader analysis relative to control. Conditions: probe luciferin, time 80 min.

The subject of data set [9] is IMR-32. The experiment in a line: Cytotoxicity against human IMR-32 cells assessed as combination index measured after 24 hrs by cell titer glo assay. In kind it is functional.
Data set [10] deals with CHP-134. The experiment in a line: Cytotoxicity against human CHP-134 cells assessed as lethal concentration measured after 24 hrs by cell titer glo assay. It counts as functional. Conditions: read-out: LC50 (the source's name).
Data set [11] deals with IMR-32. The experiment in a line: Cytotoxicity against human IMR-32 cells assessed as lethal concentration measured after 24 hrs by cell titer glo assay. It counts as functional. Conditions: read-out: LC50 (the source's name).

The structures appear in SMILES notation. Active and inactive are the calls of the source. The calls are words filed in the database; no cut-off is given here.

For the compound `O=S(=O)(Nc1ccc(Br)cc1-c1nnn[nH]1)c1ccc(-c2ccc(Cl)cc2)cc1`, the CC50 was 7 nM with IMR-32 [1], 3100 nM in the data set with IMR-32 [3], 11600 nM in the data set with CHP-134 [4] and 60 nM with CHP-134 [6]. In data set [2], this compound displayed an inhibition of 12%. In addition, the result in the data set with CHP-134 [5] and in the data set with IMR-32 [7] was Active.

`C#CCN(C)CCCOc1ccc(Cl)cc1Cl` [CLORGILINE]: the inhibition at 20 min, 1 µM in [8] turned out to be 92%.

Regarding `COc1ccc(C2=C(c3ccc(C#N)c(F)c3)N=C(N3CCC(N)CC3)N(C)C2)cc1F`, the CC50 in the data set with IMR-32 [1] amounted to 8.4 nM; in the data set on CHP-134 [6], 16 nM.

On to `CC(C)C[C@H](NC(=O)[C@H](Cc1ccccc1)NC(=O)c1cnccn1)B(O)O` [BORTEZOMIB], for which, in the data set with IMR-32 [9], the CI came to 0.37. Besides, the CC50 stood at 106 nM in the data set on CHP-134 [10] and 19 nM in the data set on IMR-32 [11].

For the origin of these results see ChEMBL document CHEMBL5247583, “Synthesis and evaluation of small molecule inhibitors of LSD1 for use against MYCN-expressing neuroblastoma” (Eur J Med Chem, 2022).
